For orientation: Cmax means the peak of the concentration-time curve.

From ChEMBL document CHEMBL1136899, “Synthesis and therapeutic evaluation of pyridyl based novel mTOR inhibitors” (Bioorg Med Chem Lett, 2009) come the findings set out here.

The source made the active and inactive calls. The rule behind the calls is not given here.

Data set [1] relates to Mus musculus. The data set is described as follows: Inhibition of dextran sulfate sodium-induced weight loss in mouse at 150 mg/kg, ip administered daily for 10 days by macroscopic analysis. Format: functional, organism-based. Details: dose 150 mg/kg.
The nature of data set [2]: Cmax in mouse plasma at 15 mg/kg, ip. Format: ADME, organism-based. Also noted: dose 15 mg/kg, route intraperitoneal.
Data set [3] relates to Mus musculus. Description: Protection against dextran sulfate sodium-induced crypt damage in mouse at 150 mg/kg, ip administered daily for 10 days by histological analysis. Format: functional, organism-based. Details: dose 150 mg/kg.
Data set [4] deals with Mus musculus. The data set is described as follows: Suppression of dextran sulfate sodium-induced colitis in mouse assessed as decrease in disease activity index at 150 mg/kg, ip administered daily for 10 days by macroscopic analysis. Details: dose 150 mg/kg. Format: functional, organism-based.
A short description of data set [5]: Cmax in mouse plasma at 100 mg/kg, ip. In kind it is ADME, organism-based. Also noted: dose 100 mg/kg, route intraperitoneal.
The subject of data set [6] is Mus musculus. The data set is described as follows: Decrease in dextran sulfate sodium-induced edema in mouse at 150 mg/kg, ip administered daily for 10 days by histological analysis. In kind it is functional, organism-based. Details: dose 150 mg/kg.
Data set [7] deals with Mus musculus. The data set is described as follows: Suppression of dextran sulfate sodium-induced colitis in mouse assessed as improved rectal bleeding index at 150 mg/kg, ip administered daily for 10 days by macroscopic analysis. In kind it is functional, organism-based. Also noted: dose 150 mg/kg.
The test system of data set [8] is Mus musculus. Description: Suppression of dextran sulfate sodium-induced colitis in mouse assessed as inhibition of leukocyte infiltration in colonic mucosa at 150 mg/kg, ip administered daily for 10 days by histological analysis. Details: dose 150 mg/kg. In kind it is functional, organism-based.
Data set [9] relates to Plasma. The data set is described as follows: Stability in mouse plasma. In kind it is ADME, cell-free.
The test system of a further data set is PBMC. The data set is described as follows: Inhibition of concanavalin A-induced IFN-gamma production in human PBMC cells. Format: functional, cell-based.
Data set [10] concerns Mus musculus. The data set is described as follows: Blockade of dextran sulfate sodium-induced mTOR activation in mouse at 150 mg/kg, ip administered daily for 10 days by Western blot analysis. Format: functional, organism-based. Details: dose 150 mg/kg. In general terms: In western blotting, separated proteins are transferred to a membrane and probed.
In data set [11] the test system is Mus musculus. The data set is described as follows: Reversal of dextran sulfate sodium-induced shortening of colon in mouse at 150 mg/kg, ip administered daily for 10 days by macroscopic analysis. Format: functional, organism-based. Also noted: dose 150 mg/kg.
For data set [12], the system named is Plasma. Description: Stability in rat plasma. In kind it is ADME, cell-free.
Data set [13] has as its system Plasma. Description: Stability in human plasma. Format: ADME, cell-free.

On to `CC(Cl)C(=O)Nc1ccc(C#N)nc1` (centres undefined), for which the inhibition result with Mus musculus [1] and in the data set with Mus musculus [8] was “Active” throughout. Also, the Cmax was determined as 30 µM in data set [2] and 180 µM in [5]. Moreover, the outcome with Mus musculus [3], in the data set on Mus musculus [4], with Mus musculus [6], in the data set with Mus musculus [7], in the data set on Mus musculus [10] and in the data set on Mus musculus [11] was Active. The Stability result with Plasma [9], in the data set on Plasma [12] and in the data set with Plasma [13] was “Stable” throughout. Besides, the Activity result with PBMC is “Dose-dependent effect”.
